Source: PubChem BioAssay AID1259407 (Chemical Carcinogenesis Research Information System (CCRIS), 2018)
Calls of active or inactive are those of the source. The rule behind the calls is not given here.

Test system: CCRIS mutagenicity, Ames/micronucleus/aberration tests
Test: CCRIS mutagenicity studies
[1] = Test System: AMES SALMONELLA TYPHIMURIUM, Strain/Indicator: TA98, Metabolic Activation: NONE, Method: STANDARD PLATE
[2] = Test System: AMES SALMONELLA TYPHIMURIUM, Strain/Indicator: TA100, Metabolic Activation: NONE, Method: STANDARD PLATE

In the case of `ClC/C=C/CCl`, the mutagenic call (Test System: AMES SALMONELLA TYPHIMURIUM, Strain/Indicator: TA98, Metabolic Activation: HAMSTER, LIVER, S-9, AROCLOR 1254 (10%), Method: STANDARD PLATE) is reported as “active; positive”, the mutagenic call [1] is reported as “active; positive” and the mutagenic call (Test System: AMES SALMONELLA TYPHIMURIUM, Strain/Indicator: TA98, Metabolic Activation: RAT, LIVER, S-9, AROCLOR 1254 (10%), Method: STANDARD PLATE) is reported as “active; positive”. The mutagenic call (Test System: AMES SALMONELLA TYPHIMURIUM, Strain/Indicator: TA100, Metabolic Activation: HAMSTER, LIVER, S-9, AROCLOR 1254 (10%), Method: STANDARD PLATE) was “active; positive”, the mutagenic call [2] was “active; positive” and the mutagenic call (Test System: AMES SALMONELLA TYPHIMURIUM, Strain/Indicator: TA100, Metabolic Activation: RAT, LIVER, S-9, AROCLOR 1254 (10%), Method: STANDARD PLATE) was “active; positive”. The mutagenic call (Test System: MOUSE LYMPHOMA, Strain/Indicator: L5178Y (TK+/TK-), Metabolic Activation: NONE, Method: SUSPENSION/PLATE) was “active; positive. reevaluation of results: inconclusive” and the mutagenic call (Test System: MOUSE LYMPHOMA, Strain/Indicator: L5178Y (TK+/TK-), Metabolic Activation: RAT, LIVER, S-9, AROCLOR 1254, Method: SUSPENSION/PLATE) was “active; positive. reevaluation of results: positive”.
With `CNc1ncn(C)c1C(=O)N(C)N=O` the mutagenic call [1] was “inactive; negative”, the mutagenic call (Test System: AMES SALMONELLA TYPHIMURIUM, Strain/Indicator: TA98, Metabolic Activation: S-9, Method: STANDARD PLATE) was “inactive; negative” and the mutagenic call [2] was “inactive; negative”. The mutagenic call (Test System: AMES SALMONELLA TYPHIMURIUM, Strain/Indicator: TA100, Metabolic Activation: S-9, Method: STANDARD PLATE) was “active; positive”, the mutagenic call (Test System: AMES SALMONELLA TYPHIMURIUM, Strain/Indicator: TA102, Metabolic Activation: NONE, Method: STANDARD PLATE) was “active; positive” and the mutagenic call (Test System: AMES SALMONELLA TYPHIMURIUM, Strain/Indicator: TA102, Metabolic Activation: S-9, Method: STANDARD PLATE) was “active; positive”. The mutagenic call (Test System: AMES SALMONELLA TYPHIMURIUM, Strain/Indicator: TA1535, Metabolic Activation: S-9, Method: STANDARD PLATE) was “active; positive”, the mutagenic call (Test System: AMES SALMONELLA TYPHIMURIUM, Strain/Indicator: TA1537, Metabolic Activation: NONE, Method: STANDARD PLATE) was “inactive; negative” and the mutagenic call (Test System: AMES SALMONELLA TYPHIMURIUM, Strain/Indicator: TA1537, Metabolic Activation: S-9, Method: STANDARD PLATE) was “inactive; negative”.
In the case of `CC(C)C1(C)N=C(c2ncccc2C(=O)O)NC1=O` (stereo not given), the mutagenic call (End Point: IN VIVO MICRONUCLEUS, Test System: BONE MARROW POLYCHROMATIC ERYTHROCYTES, Species: MOUSE, Strain/Sex: SWISS/MALE, FEMALE, Route: IP 2X IN AQUEOUS SUSPENSION WITHIN 24 HR) is reported as “inactive; negative”.
With `Cc1cccc2c1cc(C)c1c3c(ccc12)C(O)C(O)C1OC31` (stereo not given) the mutagenic call (Test System: AMES SALMONELLA TYPHIMURIUM, Strain/Indicator: TA100, Metabolic Activation: NONE, Method: PREINCUBATION) was “active; positive” and the mutagenic call [2] was “active; positive”.
